{"source": "patent US12163156B2", "about": "“Cell induction method” (INSTITUTE OF ZOOLOGY, CHINESE ACADEMY OF SCIENCES, priority 2018, dated 2024)", "key": {"[1]": {"tested_on": "Mouse embryonic fibroblasts", "assay": "Transdifferentiation of mouse embryonic fibroblasts into adipocytes, oil red O staining", "type": "cell-based", "conditions": "10 μM added to the original adipocyte induction medium (Myosin inhibitor + BMP4); P<0.001", "method": "Taking a 12-well plate as an example (coming, 3335), for each well, preparing 20 μg/ml Matrigel solution (BD, 354277) with 1×DMEM and coating for 12 hours; then the coating solution is removed, washing with 1×PBS. Mouse embryonic fibroblasts (C57, prepared by E13.5) or adult foreskin fibroblasts (HFF20y, Beijing Stem Cell Bank) are uniformly seeded in each well, 1×10^4 cells per well; incubating in basic medium (high glucose DMEM (Gibco, C12430500BT), double antibiotics) added with 10% fetal bovine serum (Gibco, 16000-044) for 24 hours. The medium is removed, then washing with PBS. […] The identification of adipocytes is performed by oil red staining of cells, oil red O staining solution (cell-specific, Solarbio, […]) is used, and the details are as follows: removing the medium, adding ORO Fixative to fix for 10-15 min, removing the ORO Fixative, and placing in flowing air for 10-15 min. At this time, ORO Stain is prepared in a ratio of ORO Stain A:ORO Stain B=3:2, standing for 10 min after mixing, then adding to the well; the staining solution is removed after dip dyeing for 15 min, adding 60% isopropanol to rinse for 20-30 s, and washing with distilled water for 3 times, then taking photos under an optical microscope. The neutral fats are orange-red or orange-colored, and the phospholipids are pink."}, "ICR female mice": {"tested_on": "ICR female mice", "assay": "In vivo experiment: ventral fat content after injection into the ventral side of mice", "set-up": "species or system mouse", "conditions": "0.5 mg/kg injected into the ventral side once a day; for ventral fat content: 19 days, drug stopped for 32 days, vs DMSO group", "method": "In vivo experiment: the same batch of 6-8 week-old ICR female mice are selected and randomly divided into two groups, 5 in each group. As to one group, small molecule (−)-Blebbistatin or (S)-(−)-Blebbistatin O-Benzoate (0.5 mg/kg, dissolved in 10% DMSO+2% Tween 80+normal saline) is injected into the ventral side of the mice; as to the other group, the same amount of DMSO as the small molecule group is injected in the same way as the experimental group. The injection is performed once a day, 19 days after the injection, and the drug is stopped for 32 days. The mice are sacrificed by cervical dislocation, and the ventral fat content is observed."}, "[2]": {"tested_on": "mouse adult primary hepatocytes", "assay": "In vitro amplification of mouse adult primary hepatocytes (Alb-GFP)", "description": "Alb-Cre mice are introduced from BRL Medicine, Cre recombinase is only expressed in mature hepatocytes expressing albumin; Rosa26/mTmG mice are introduced from Charles River, and a red and green fluorescence reporter system is incorporated into the Rosa26 locus of this kind of mouse; normally a tomato red fluorescent protein is expressed in the cells, while in the case of Cre recombination it is changed to express a green fluorescent protein (GFP). Alb-Cre adult mice are hybridizedwith Rosa26/mTmG mice to obtain offspring Alb-Cre×Rosa26/mTmG mice, and mature hepatocytes of the offspring are labeled green, and other tissue cells present the red fluorescent.\nAlb-Cre×Rosa26/mTmG adult mice are sacrificed by cervical dislocation, taking out the hepatic lobes, cutting into small pieces, blowing and washing repeatedly with 100 volumes of pre-cooled PBS to remove the blood cells until the washing solution is not red; adding 3-5 volumes of collagenase IV (ThermoFisher, 17104019, preheated at 37° C.) to digest in incubator at 37° C. for 30-40 min, and blowing 2-3 times during the digestion, then centrifuging and removing the supernatant. […] The mouse hepatocyte medium comprises: DMEM/F12 (gibco, 10565018), adding N2 additive (100×, Gibco, 17502048), B27 additive (50×, Gibco, 17504044), 5% bovine serum albumin (1000×, Sigma, A8022), β-mercaptoethanol (1000×, Gibco, 21985023), GlutaMAX (200×, Gibco, 35050-061), non-essential amino acids (100×, Gibco, 11140-050), 1 μg/mL insulin (Roche, 11376497001), hepatocyte growth factor (10 ng/mL, R&D, 294-HG-025), transforming growth factor β inhibitor A83-01 (5 μm, stemgent, 04-0014), glycogen synthase kinase 3β inhibitor Chir99021 (6 μM, stemgent, 04-0004-10), macrophage stimulating protein 1 and 2 inhibitor XMU-MP-1 (2-5 μM, MCE, HY-100526) fibroblast growth factor 4 (10 ng/mL, R&D, 5846-f4-025), double antibiotics.\nWithout addition of Myosin II inhibitor (−)-Blebbistatin or (S)-(−)-Blebbistatin O-Benzoate, an equal volume of DMSO is added as a control, and the cells are respectively subcultured 3 times (P3), 5 times (P5), and seven times (P7)."}, "[3]": {"tested_on": "human embryonic hepatocytes", "assay": "In vitro amplification of human embryonic hepatocytes", "type": "cell-based", "conditions": "for cells amplified (multiple): 12 days subculturing (3 generations in total)", "method": "(1) Coating the plate. The cell culture plate is coated with rat tail tendon collagen (Thermo scientific, A1048301, 3 mg/mL) at a concentration of […]. Taking a 24-well plate as an example, the bottom area of each hole is 1.9 cm^2, and […] is needed per well (about 3.2 μl); 3.2 μl of rat tail tendon collagen is dissolved in 500 μl of 20 mM glacial acetic acid, adding to the well to incubate in cell culture incubator at 37° C. for 1 h, and after aspirating and abandoning the solution, washing with PBS for 3 times.\n(2) Resuscitation of human embryonic hepatocytes. Human embryonic hepatocytes are taken out from liquid nitrogen tanks (freezing date: Jan. 15, 2014; freezing medium: cell banker 2; the number of frozen cells: 2×10^7/tube), quickly placing in a 37° C. water bath, immediately after thawing the cells are sucked into a 15 mL centrifuge tube containing 5 mL of hepatocyte medium (control group), then centrifuging at 50 g, 4° C. for 5 min. The supernatant is discarded, then the cells are resuspended in 500 μl of hepatocyte medium with the number of 1.16×10^6 cells, and the cell resuscitation rate is 5.8%.\n(3) Seeding the human embryonic hepatocytes. […] After hepatocyte medium containing 10 μM small molecule (−)-Blebbistatin, and hepatocyte medium containing 20 μM small molecule (−)-Blebbistatin hepatocyte medium are respectively seeded 24 h, for each group the digested cells from 3 wells are counted to calculate the cell attachment rate. After seeding for 72 h, for each group 3 wells of cells are digested and counted. […] A portion of the cells per well (⅖ of the cells counted) are taken for RNA extraction to detect the expression of human hepatocyte-associated genes.\n(4) The first passage of human embryonic hepatocytes. […] A portion of the cells per well (⅖ of the cells counted) are taken for RNA extraction to detect the expression of human hepatocyte-associated genes.\n(5) The second passage of human embryonic hepatocytes. […] The medium is changed every 2 days, and after continuing to culture for 144 h (6 days), the cells are digested and counted. […]"}, "adult hepatocytes": {"tested_on": "adult hepatocytes", "assay": "Small molecule amplification of adult hepatocytes", "type": "cell-based, human", "conditions": "for number of cells after 6 days of culturing: control group 1.59×10^4", "method": "(1) The method for coating the plate is as described above.\n(2) Resuscitation and culture of adult hepatocytes. Adult hepatocytes (M00995-P […] human, Bioreclamation IVT) are taken out from a liquid nitrogen tank, then quickly placing in a 37° C. water bath, after thawing the cells are added to 5 mL of 37° C. pre-heated hepatocyte inoculation medium (InVitroGRO CP Medium), after counting the cells are inoculated in a 24-well plate at the density of 9×10^4/well, 2-4 h after hepatocyte adherence, aspirating and abandoning the hepatocyte inoculation medium, and respectively adding hepatocyte culture control medium, 10 μm small molecule medium, and 20 μm small molecule medium. The media are changed every 2 days. The number of cells is estimated from the photograph on day 2. After 4 days, the cells of the 20 μm small molecule medium group are changed to culture in 10 μm small molecule medium. The cells are counted after co-culturing for 6 days. A portion of the cells are taken for RNA extraction to detect the expression of human hepatocyte-specific genes.\n(3) Passage of adult hepatocytes. 4.7×10^4 of the hepatocytes cultured in the above-mentioned control group, and 8×10^4 of the hepatocytes cultured 10 μm small-molecule medium are respectively re-inoculated into the 24-well plates coated with rat tail tendon collagen, and the media are changed every two days. After 6 days, photos are taken to record cell growth."}, "CYP1A2 gene": {"tested_on": "CYP1A2 gene", "assay": "CYP1A2 gene induction with omeprazole in small molecule-amplified adult hepatocytes", "type": "cell-based, human", "conditions": "50 μm omeprazole in 10 μm small molecule medium, 48 hours, vs DMSO", "method": "(4) 10CYP1A2 adult hepatocytes amplified in 10 μm small medium. 3×10^5 hepatocytes are induced and inoculated in a 24-well plate coated with rat tail tendon collagen, after culturing in a 10 μm small molecule medium for 24 h, then replacing the medium with a 10 μm small molecule medium with 50 μm omeprazole, the control group is a 10 μm small molecule medium containing DMSO, and 48 hours later the cells are collected to detect the expression of the CYP1A2 gene."}}, "data": [{"compound": "NC(=O)c1ccc(-c2nc(-c3ccc4c(c3)OCO4)c(-c3ccccn3)[nH]2)cc1", "note": "[SB431542]", "values": [{"measurement": "adipocyte induction efficiency", "setting": "[1]", "result": 18, "unit": "%"}]}, {"compound": "Cc1ccc2c(c1)C(=O)[C@]1(OC(=O)c3ccccc3)CCN(c3ccccc3)C1=N2", "note": "[(S)-(−)-Blebbistatin O-Benzoate]", "values": [{"measurement": "ventral fat content increase", "setting": "ICR female mice; without optimization", "result": "about 50%"}, {"measurement": "passaged in vitro", "setting": "[2]; treated mouse hepatocytes", "result": "more than 20 times"}]}, {"compound": "Cc1ccc2c(c1)C(=O)C1(O)CCN(c3ccccc3)C1=N2", "note": "(single isomer, unassigned; (-)) [(−)-Blebbistatin]", "values": [{"measurement": "ventral fat content", "setting": "ICR female mice", "result": "significantly increase"}, {"measurement": "ventral fat content", "setting": "ICR female mice; listed as Ble", "result": "significant increase"}, {"measurement": "human hepatocyte-specific genes albumin and alpha-fetoprotein expression", "setting": "[3]; 10 μM and 20 μM small molecule media, 12 days subculturing, real-time quantitative PCR", "result": "still expressed"}, {"measurement": "cells amplified (multiple)", "setting": "[3]; 10 μM small molecule medium", "result": "about 22.1 times"}, {"measurement": "cells amplified (multiple)", "setting": "[3]; 20 μM small molecule medium", "result": "about 13.0 times"}, {"measurement": "number of cells after 6 days of culturing", "setting": "adult hepatocytes; 10 μm group", "result": "6.47×10^4 (SD=1.24)"}, {"measurement": "subculture of human hepatocytes", "setting": "adult hepatocytes; 10 μm small molecule medium, control medium cannot", "result": "can make human hepatocytes subculture"}, {"measurement": "number of cells after 6 days of culturing", "setting": "adult hepatocytes; # group: 20 μm for 4 days then 10 μm for 2 days", "result": "9.47×10^4 (SD=0.98)"}, {"measurement": "expression of human hepatocyte specific genes albumin, AFP, CYP1A2, CYP3A4", "setting": "adult hepatocytes; adult hepatocytes amplified with small molecules", "result": "still express"}, {"measurement": "expression of the proliferating cell nuclear antigen (PCNA) gene", "setting": "adult hepatocytes; small molecule group vs control group", "result": "significantly higher"}, {"measurement": "amplification effect on adult hepatocytes (cell number day 6 / day 2)", "setting": "adult hepatocytes; small molecule groups vs control", "result": "significant amplification effect"}, {"measurement": "hepatocyte clusters with Alb expression", "setting": "[2]; 5 μM in mouse hepatocyte medium, fibronectin-coated dish, one week", "result": "green hepatocyte clusters with Alb expression are observed"}, {"measurement": "subculturing in vitro", "setting": "[2]; mouse hepatocytes in medium with Myosin inhibitor", "result": "at least 20 generations"}, {"measurement": "long-term amplification of AlB-GFP-positive hepatocytes", "setting": "[2]; vs DMSO control, subcultured P3, P5, P7", "result": "significantly promotes"}]}, {"compound": "COc1ccc2[nH]c([S+]([O-])Cc3ncc(C)c(OC)c3C)nc2c1", "note": "(stereo not shown) [omeprazole]", "values": [{"measurement": "expression of CYP1A2 gene", "setting": "CYP1A2 gene", "result": "can be increased"}]}, {"compound": "Cc1cccc(-c2nn(C(=S)Nc3ccccc3)cc2-c2ccnc3ccccc23)n1", "note": "[A83-01]", "values": [{"measurement": "adipocyte induction efficiency", "setting": "[1]", "result": "up to 20%"}]}]}
